ChEMBL document CHEMBL1201862, “PubChem BioAssay data set” (2004)
The source made the active and inactive calls.

Tests used:
[1] = potency of ADAM10 substrate cleavage blockers – biochemical, QFRET, dose response (AID 743254);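 also: ADAM10 enzyme with the DM2 quenched FRET peptide as substrate; EDANS fluorescence gain as the protease cuts the substrate; inhibitor potency against ADAM10 proteolytic activity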
[2] = target: Disintegrin and metalloproteinase domain-containing protein 17 (Homo sapiens, UniProt P78536); experiment: inhibition of ADAM17 substrate cleavage – biochemical, quenched FRET substrate, counter-screen for ADAM10 exosite inhibitor project, dose response (AID 743253)
cells = details: A549
[3] = Luminescence Cell-Based Dose Confirmation HTS to Identify Activators of 5'UTR Stem-Loop Driven Alpha-Synuclein mRNA Translation in H4 Neuroglioblastoma Cells. [Related pubchem assays: 1829 (Project Summary), 1814 (Primary HTS)]; type: functional
H4 = experiment: Luminescence Cell-Based Dose Response HTS to Identify Activators of 5'UTR Stem-Loop Driven Prion Protein mRNA Translation in H4 Neuroglioblastoma Cells. [Related pubchem assays: 1829 (Project Summary), 1814 (Primary HTS)]; type: functional; details: Homo sapiens
[4] = Luminescence Cell-Based Dose Response HTS to Identify Activators of Luciferase Translation or Activity in H4 […] Cells. [Related pubchem assays: 1829 (Project Summary), 1814 (Primary HTS)]; type: functional
[5] = Counterscreen for inhibitors of Trypanosoma brucei methionyl tRNA synthetase (MetRS): Luminescence-based cell-based high throughput dose response assay to identify compounds that are cytotoxic to Jurkat human T lymphocyte cells.; type: functional
[6] = target: T1, Corticotropin-releasing factor receptor 2/Corticotropin-releasing factor-binding protein (Homo sapiens, UniProt P24387+Q13324); experiment: activators of CRF receptor 2 with binding protein – uHTS hits, confirmation (AID 602473); type: functional; details: read-out: EC50_Mean
T1 sequence (Q13324 whole entry): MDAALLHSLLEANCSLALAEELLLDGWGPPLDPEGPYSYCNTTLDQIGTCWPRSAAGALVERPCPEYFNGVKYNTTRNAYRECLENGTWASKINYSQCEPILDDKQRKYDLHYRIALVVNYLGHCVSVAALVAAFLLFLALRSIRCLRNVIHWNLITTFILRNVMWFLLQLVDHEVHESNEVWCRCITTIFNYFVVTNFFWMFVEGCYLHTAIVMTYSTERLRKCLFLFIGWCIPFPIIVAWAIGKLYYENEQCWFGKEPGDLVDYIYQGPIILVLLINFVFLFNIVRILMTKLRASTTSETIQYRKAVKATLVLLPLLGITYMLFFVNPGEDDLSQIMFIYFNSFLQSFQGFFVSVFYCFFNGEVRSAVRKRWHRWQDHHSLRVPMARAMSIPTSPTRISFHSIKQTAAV
T1 sequence (P24387 whole entry): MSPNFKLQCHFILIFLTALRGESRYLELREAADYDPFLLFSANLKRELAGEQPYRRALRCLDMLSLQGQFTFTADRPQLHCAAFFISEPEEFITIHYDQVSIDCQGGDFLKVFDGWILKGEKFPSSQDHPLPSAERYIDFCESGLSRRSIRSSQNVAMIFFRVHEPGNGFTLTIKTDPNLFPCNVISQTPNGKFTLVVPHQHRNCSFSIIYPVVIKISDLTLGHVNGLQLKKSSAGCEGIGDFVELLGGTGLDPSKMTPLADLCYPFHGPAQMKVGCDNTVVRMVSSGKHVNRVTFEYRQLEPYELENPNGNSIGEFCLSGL

[7] = target: T2, Scavenger receptor class B member 1 (Mus musculus, UniProt Q61009); experiment: blockers of DiI-HDL lipid transfer via SR-BI – cell-based, ldlA[mSR-BI] CHO, DiI fluorescence, dry powder, set 10, dose response (AID 624029); type: functional
T2 sequence (Q61009 whole entry): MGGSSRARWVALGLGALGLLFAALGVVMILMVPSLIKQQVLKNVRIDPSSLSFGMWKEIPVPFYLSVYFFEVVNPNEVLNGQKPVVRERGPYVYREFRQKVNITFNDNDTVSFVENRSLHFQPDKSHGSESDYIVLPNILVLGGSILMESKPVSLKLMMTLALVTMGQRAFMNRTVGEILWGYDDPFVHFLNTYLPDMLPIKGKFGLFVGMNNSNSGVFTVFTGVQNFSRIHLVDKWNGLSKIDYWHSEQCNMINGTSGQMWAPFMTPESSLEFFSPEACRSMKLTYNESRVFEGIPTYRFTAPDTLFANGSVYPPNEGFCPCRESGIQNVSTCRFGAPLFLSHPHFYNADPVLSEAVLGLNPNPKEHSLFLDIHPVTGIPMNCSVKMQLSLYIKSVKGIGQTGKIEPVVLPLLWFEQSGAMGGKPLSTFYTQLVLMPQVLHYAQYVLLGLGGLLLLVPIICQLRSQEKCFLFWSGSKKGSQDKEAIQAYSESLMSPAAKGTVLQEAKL

[8] = target: T2, Scavenger receptor class B member 1; experiment: mouse SR-BI DiI-HDL transfer blockers – ldlA[mSR-BI] CHO cells, fluorescence plate reader, dry powder, set 9, dose response (AID 623880); type: functional, cell-based
fMet-Leu-Phe receptor = fMet-Leu-Phe receptor (Homo sapiens, UniProt P21462); experiment: formyl peptide receptor binders – dose response (AID 519); type: functional
[9] = blockers of bursicon-stimulated LGR2 cAMP reporter – cell-based, HEK293, CRE-luciferase reporter, cherry pick, set 2, dose response (AID 743343); type: functional;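 also: transfected cells were stimulated with diluted bursicon conditioned medium after compound addition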
[10] = toxicity toward HepG2 liver cells – cell-based, plate reader, cherry-pick, antagonist series, cytotoxicity control, dose response (AID 743416); type: functional
[11] = A549 cell cytotoxicity, dose response, cytotoxicity control, plate reader, cherry-pick, antagonist series (AID 743412); type: functional, cell-based
HeLa = experiment: viability loss in HeLa cells – cell-based, ATP luminescence, cherry-pick samples, cytotoxicity control, dose response (AID 687004); type: functional; details: Homo sapiens
HEK293 = experiment: viability loss in HEK293T cells – cell-based, ATP luminescence, cherry-pick samples, cytotoxicity control, dose response (AID 687005); type: functional; details: Homo sapiens;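 also: cells exposed to compound for 48 hours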
[12] = HEK293 Cytotoxicity Assay Measured in Cell-Based System Using Plate Reader - 7071-01_Inhibitor_Dose_CherryPick_Activity_Set2.; type: functional

Chain of Disintegrin and metalloproteinase domain-containing protein 17 (P78536 whole entry, the tested form may be a part): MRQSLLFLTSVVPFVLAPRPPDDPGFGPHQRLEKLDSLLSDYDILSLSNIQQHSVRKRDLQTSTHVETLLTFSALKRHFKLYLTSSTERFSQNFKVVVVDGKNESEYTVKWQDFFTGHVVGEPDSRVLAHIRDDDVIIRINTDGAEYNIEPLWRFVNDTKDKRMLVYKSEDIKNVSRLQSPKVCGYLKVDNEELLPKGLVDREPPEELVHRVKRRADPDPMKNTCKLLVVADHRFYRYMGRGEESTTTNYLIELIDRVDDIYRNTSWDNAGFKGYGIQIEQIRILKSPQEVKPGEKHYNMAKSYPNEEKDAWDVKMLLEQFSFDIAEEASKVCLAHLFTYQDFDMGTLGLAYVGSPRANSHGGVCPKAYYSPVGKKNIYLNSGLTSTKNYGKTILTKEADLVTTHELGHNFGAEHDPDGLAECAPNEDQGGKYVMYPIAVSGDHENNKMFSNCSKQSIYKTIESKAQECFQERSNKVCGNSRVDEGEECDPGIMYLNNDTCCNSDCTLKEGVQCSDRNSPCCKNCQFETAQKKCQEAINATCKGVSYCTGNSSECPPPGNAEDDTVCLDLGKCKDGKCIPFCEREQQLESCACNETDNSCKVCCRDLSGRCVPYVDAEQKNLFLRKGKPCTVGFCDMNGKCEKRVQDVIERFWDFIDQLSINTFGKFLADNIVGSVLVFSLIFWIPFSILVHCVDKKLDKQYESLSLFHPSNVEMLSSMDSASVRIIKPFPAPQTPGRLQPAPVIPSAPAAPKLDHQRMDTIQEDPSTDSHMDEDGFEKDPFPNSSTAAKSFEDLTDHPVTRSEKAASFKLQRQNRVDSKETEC
Chain of fMet-Leu-Phe receptor (P21462 whole entry): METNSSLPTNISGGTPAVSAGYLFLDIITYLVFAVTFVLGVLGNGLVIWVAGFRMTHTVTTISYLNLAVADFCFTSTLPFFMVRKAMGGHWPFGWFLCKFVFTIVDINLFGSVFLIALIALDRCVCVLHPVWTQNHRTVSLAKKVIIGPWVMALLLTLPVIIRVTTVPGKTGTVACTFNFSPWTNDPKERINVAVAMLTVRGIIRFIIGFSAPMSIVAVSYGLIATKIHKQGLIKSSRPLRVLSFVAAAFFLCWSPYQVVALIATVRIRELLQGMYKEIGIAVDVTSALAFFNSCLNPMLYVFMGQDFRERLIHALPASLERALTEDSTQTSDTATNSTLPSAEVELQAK

COc1ccc(NC(=O)Cn2nnc(-c3ccccc3)c2COc2ccc3ccccc3c2)cn1
IC50 [1]: > 7.72 µM (active)
IC50 [2]: > 69.5 µM (inactive)

O=[N+]([O-])c1cccc(Nc2c3ccccc3nc3ccccc23)c1
AC50 (cells): 46.4 µM (active)

Cc1ccc2[nH]c(-c3ccc(SCC(=O)Nc4ccc5c(c4)OCCO5)nc3)nc2c1
EC50 [3]: 1.13 µM (active)
EC50 (H4): 11.3 µM (active)
EC50 [4]: 1.99 µM (active)
IC50 [5]: 83.3 µM (inactive)

O=C1C2C3C=CC(C3)C2C(=O)N1c1cccc(N2C(=O)C3C4C=CC(C4)C3C2=O)n1 (stereo unspecified)
EC50 [6]: > 53 µM (inactive)
AC50 [7]: > 70 µM (inactive)
AC50 [8]: 45.2 µM (active)

CCOc1ccc(C2C(C(=O)c3ccco3)=C(O)C(=O)N2CCCn2ccnc2)cc1 (stereo unspecified)
Ki (fMet-Leu-Phe receptor): 9.9 µM (active)

CCCCn1nnnc1C(c1cc2ccccc2o1)N1CCN(c2ccncc2)CC1 (stereo unspecified)
AC50 [9]: 40.1 µM (active)
AC50 [10]: > 52 µM (inactive)
AC50 [11]: 32.6 µM (active)

C[C@@H]1CN([C@H](C)CO[Si](C)(C)C(C)(C)C)C(=O)c2cc(NC(=O)C3CCCCC3)ccc2O[C@H]1CN(C)C(=O)c1ccc(Cl)cc1
AC50 [7]: > 70 µM (inactive)
AC50 [8]: > 70 µM (inactive)

C[C@H]1CN([C@@H](C)CO)C(=O)Cc2cc(NC(=O)CCCCCC(=O)Nc3ccccc3N)ccc2O[C@H]1CN(C)Cc1ccc2c(c1)OCO2
AC50 (HeLa): 51.7 µM (active)
AC50 (HEK293): 22.8 µM (active)
AC50 [12]: 22.8 µM (active)

O=C(C1CCC(Cn2c(=S)[nH]c3ccccc3c2=O)CC1)N1CCN(c2ccccc2)CC1 (stereo unspecified)
IC50 [1]: > 69.5 µM (inactive)
IC50 [2]: > 69.5 µM (inactive)
